Results on seven substances are retold here after patent publication US20110288154A1, “RNA Interference Mediated Inhibition of Epithelial Sodium Channel (ENaC) Gene Expression Using Short Interfering Nucleic Acid (siNA)” (MERCK & CO., INC., priority 2008, published 2011).

[invAb] = inverted abasic unit; m = 2'-O-methyl; r = 2'-OH (RNA); f = 2'-fluoro

The test system of the data set is mSCNN1A mRNA. In words: Screening of ENaCα siNAs in mouse NIH 3T3 cells (quantitative RT-PCR). It is filed as cell-based. More on the design: Percent Reduction of the mSCNN1A mRNA relative to a non-targeting control siNA / Mouse % KD (efficacy of ENaCα mRNA knockdown): concentration or dose not given beside the values. The settings on record: for Mean (mSCNN1A expression normalized to the level of m36B4) / Percent Reduction of the mSCNN1A mRNA relative to a non-targeting control siNA / Avg ENaCα Expression (mSCNN1A) / Avg 36B4 Expression: mouse NIH 3T3 cells, n = 3; for Mean (mSCNN1A expression normalized to the level of m36B4) / Percent Reduction of the mSCNN1A mRNA relative to a non-targeting control siNA / Avg 36B4 Expression: 24 hours post-transfection; for Avg ENaCα Expression (mSCNN1A): harvested 24 hours post-transfection; for Avg 36B4 Expression: housekeeping gene used for normalisation; for IC50 / Mouse % KD (efficacy of ENaCα mRNA knockdown): mouse cell line; for IC50: dose response, read-out: Mouse IC50 (potency of ENaCα mRNA knockdown); for Mouse % KD (efficacy of ENaCα mRNA knockdown): summary. The procedure, abridged: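 Rat H-4-II-E and mouse NIH 3T3 cells transfected with siNA–Lipofectamine 2000 complexes (25 nM siNA final; dose-response at constant lipid), screened at 24 h. qRT-PCR with ENaCα signal normalized to GAPDH or 36B4; % knockdown relative to non-targeting control siNA, triplicates; IC50 from sigmoidal variable-slope fit.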

“B GccAuccGccuGGuGuGcu TTB / AGCAcAccAGGcGGAuGGcUU (sense GCCAUCCGCCUGGUGUGCUTT; antisense AGCACACCAGGCGGAUGGCUU; siRNA; sense: DNA at AGT, 2'-fluoro at CU, [invAb] at 5' end, 3' end, backbone not given here; antisense: sugars from the 5' end rrrmfmffmmmfmmrfmmfmm, backbone not given here) [Site 310]”: the “Mean (mSCNN1A expression normalized to the level of m36B4)” value was determined as 0.20, the “Percent Reduction of the mSCNN1A mRNA relative to a non-targeting control siNA” value stood at 16.6%, the “Avg ENaCα Expression (mSCNN1A)” value came out at 3.19 and the “Avg 36B4 Expression” value was determined as 16.02.

Consider “B GuGuGGcuGuGccuAcAuc TTB / GAUGuAGGcAcAGccAcAcUU (sense GUGUGGCUGUGCCUACAUCTT; antisense GAUGUAGGCACAGCCACACUU; siRNA; B caps on sense ends, letter-case modifications not given here, further chemistry not given here) [Site 1383]”, for which the “Mean (mSCNN1A expression normalized to the level of m36B4)” value is recorded as 0.04, the “Percent Reduction of the mSCNN1A mRNA relative to a non-targeting control siNA” value was 82.4%, the “Avg ENaCα Expression (mSCNN1A)” value came to 0.91 and the “Avg 36B4 Expression” value was determined as 14.23. Further, the IC50 stood at 3 nM and the “Mouse % KD (efficacy of ENaCα mRNA knockdown)” value is given as 82%.

Consider “B AccuGGGcAGccAGuGGAG TTB / CUCcAcuGGcuGcccAGGuUU (sense ACCUGGGCAGCCAGUGGAGTT; antisense CUCCACUGGCUGCCCAGGUUU; siRNA; sense: DNA at AGT, 2'-fluoro at CU, [invAb] at 5' end, 3' end, backbone not given here; antisense: sugars from the 5' end rrrfmffmmffmfffmmmfmm, backbone not given here) [Site 1748]”, for which the “Mean (mSCNN1A expression normalized to the level of m36B4)” value turned out to be 0.15, the “Percent Reduction of the mSCNN1A mRNA relative to a non-targeting control siNA” value is listed as −12.7%, the “Avg ENaCα Expression (mSCNN1A)” value is listed as 4.06 and the “Avg 36B4 Expression” value came to 26.15.

On to “B cuccuGuccAAccuGGGcA TTB / UGCccAGGuuGGAcAGGAGUU (sense CUCCUGUCCAACCUGGGCATT; antisense UGCCCAGGUUGGACAGGAGUU; siRNA; sense: DNA at AGT, 2'-fluoro at CU, [invAb] at 5' end, 3' end, backbone not given here; antisense: sugars from the 5' end rrrffmmmffmmmfmmmmmmm, backbone not given here) [Site 1738]”, for which the “Mean (mSCNN1A expression normalized to the level of m36B4)” value amounted to 0.13, the “Percent Reduction of the mSCNN1A mRNA relative to a non-targeting control siNA” value came out at 5.1%, the “Avg ENaCα Expression (mSCNN1A)” value is given as 2.63 and the “Avg 36B4 Expression” value is reported as 20.59.

On to “B cGcAuGAAGAcGGccuucu TTB / AGAAGGccGucuucAuGcGUU (chain 1 CGCAUGAAGACGGCCUUCUTT; chain 2 AGAAGGCCGUCUUCAUGCGUU; siRNA; chain 1: DNA at AGT, 2'-fluoro at CU, [invAb] at 5' end, 3' end, backbone not given here; chain 2: sugars from the 5' end rrrmmmffmfffffmfmfmmm, backbone not given here) [Site 340]”, for which the “Mean (mSCNN1A expression normalized to the level of m36B4)” value is on record as 0.23, the “Percent Reduction of the mSCNN1A mRNA relative to a non-targeting control siNA” value stood at 5.4%, the “Avg ENaCα Expression (mSCNN1A)” value stood at 3.35 and the “Avg 36B4 Expression” value was 14.93.

Take “B cAcAAccGcAuGAAGAcGG TTB / CCGucuucAuGcGGuuGuGUU (chain 1 CACAACCGCAUGAAGACGGTT; chain 2 CCGUCUUCAUGCGGUUGUGUU; siRNA; chain 1: DNA at AGT, 2'-fluoro at CU, [invAb] at 5' end, 3' end, backbone not given here; chain 2: sugars from the 5' end rrrfffffmfmfmmffmfmmm, backbone not given here) [Site 334]”: the “Mean (mSCNN1A expression normalized to the level of m36B4)” value turned out to be 0.21, the “Percent Reduction of the mSCNN1A mRNA relative to a non-targeting control siNA” value came to 12.3%, the “Avg ENaCα Expression (mSCNN1A)” value is 3.57 and the “Avg 36B4 Expression” value is 16.98.

Turning to “B uuAuGGAuGAuGGuGGcuu TTB / AAGccAccAucAuccAuAAUU (sense UUAUGGAUGAUGGUGGCUUTT; antisense AAGCCACCAUCAUCCAUAAUU; siRNA; B caps on sense ends, letter-case modifications not given here, further chemistry not given here) [Site 1181]”, the “Mean (mSCNN1A expression normalized to the level of m36B4)” value came out at 0.04, the “Percent Reduction of the mSCNN1A mRNA relative to a non-targeting control siNA” value was 84.4%, the “Avg ENaCα Expression (mSCNN1A)” value was 0.54 and the “Avg 36B4 Expression” value was 15.48. Besides, the IC50 was found to be 4.1 nM and the “Mouse % KD (efficacy of ENaCα mRNA knockdown)” value amounted to 84%.

For orientation: IC50 means the concentration needed to halve the response being measured.
